Here are results for one substance from publication PMC5796268, “Affinity Purification and Comparative Biosensor Analysis of Citrulline-Peptide-Specific Antibodies in Rheumatoid Arthritis” (International Journal of Molecular Sciences, 2018).

In the test the test system is citrulline-containing peptides / affinity-purified ACPA IgG. The experiment in a line: ELISA cross-reaction of affinity-purified ACPA IgG fractions with Cit-peptides. It counts as binding, human. The following applies: ACPA 0.1 mg/mL, OD ratio Cit/Arg peptide. From the text:
To see if the affinity-purified anti-peptide antibodies were able to recognize a different peptide, ELISA plates were coated with the individual peptides directly (fibrin, enolase, and EBNA-2) or indirectly, using neutravidin-coated plates and biotinylated peptides (filaggrin, collagen II, or vimentin) and the binding of the affinity-purified IgG fractions was monitored (Figure 2).
Figure 2 Reactivity of affinity-purified IgG fractions with the relevant and irrelevant citrulline-containing peptides. OD ratios that are OD with Cit/OD with Arg-containing peptides are shown. Cut-off values for each Cit- and Arg-containing peptide pair were calculated from OD indexes of 120 healthy samples (the means of OD indexes + 2 × SD). These were below 1.5 for all peptides. Results of a typical experiment.
ELISA was used to determine serum IgG ACPA concentrations and to test ACPA cross-reactions. The biotinylated, citrulline- or arginine-containing filaggrin19, vimentin, collagen II and the multi-epitope peptides were added at 1 µg/mL to the Medisorp plates (Greiner Bio-One GmbH, Kremsmünster, Germany) pre-coated with 5 µg/mL Neutravidin (Pierce Biotechnology, Rockford, IL, USA) overnight, at 4 °C, and then the plates were incubated for 1 h at 37 °C. […]
Serum samples were diluted 1:100. […] Plates were read at 450 nm with THERMO Multiscan EX ELISA-reader.

Regarding “H-Ttds-AXAXGSGSGXGXG-NH2 [multi-epitope, novel peptide consisting of two-two copies of Ala-Cit and Cit-Gly motifs separated with a neutral spacer, SGSG]”, the “binding of peptide to other affinity-purified ACPA IgG” value is given as “bound to almost all other ACPA IgG, fibrin β was the exception”.
